Results reported in patent publication US20090306116A1, “PYRIMIDINE DERIVATIVES FOR THE INHIBITION OF IGF-IR TYROSINE KINASE ACTIVITY” (AstraZeneca AB, priority 2005, published 2009).

Test system: murine fibroblasts (NIH3T3) over-expressing human IGF-1 receptor
Test: Inhibition of IGF-stimulated cell proliferation (BrdU incorporation), Test (c)
Format: cell-based
Conditions: inhibition of IGF-stimulated proliferation in NIH3T3 over-expressing human IGF-1 receptor
Description: The construction of murine fibroblasts (NIH3T3) over-expressing human IGF-1 receptor has been described by Lammers et al (EMBO J, 8, 1369-1375, 1989). These cells show a proliferative response to IGF-I which can be measured by BrdU incorporation into newly synthesised DNA. Compound potency was determined as causing inhibition of the IGF-stimulated proliferation in the following assay:
Cell Proliferation ELISA, BrdU (calorimetric) [Boehringer Mannheim (Diagnostics and Biochemicals) Ltd, UK. Cat no. 1 647 229].
DMEM, FCS, Glutamine, HBSS (all from Life Technologies Ltd., UK).
Human recombinant IGF-1 Animal/media grade (GroPep Limited ABN 78 008 176 298, Australia. Cat No. IU 100).
100 μg of lyophilised IGF was reconstituted in 100 ul of 10 mM HCl. Add 400 μl of 1 mg/ml BSA in PBS 25 μl aliquots @ 200 μg/ml IGF-1
10 μl of stock IGF+12.5 ml growth medium to give 8× stock of 160 ng/ml.
DMEM, 10% FCS, 2 mM glutamine.
DMEM, 1% charcoal/dextran stripped FCS, 2 mM glutamine.
Compounds are initially dissolved in DMSO to 10 mM, followed by dilutions in DMEM+1% FCS+glutamine to give a range from […] in 1-0.00045% DMSO final concentration in assay well. […]
The incorporation of BrdU in the cells (after a 4 h incorporation period) was assessed using the BrdU Cell Proliferation Elisa according to the manufacturer's protocol. […]

SMILES: Cc1cc(Nc2ncc[nH]2)nc(N2CCC[C@H]2c2cc(-c3ccccn3)no2)n1 [Example 23, S-6-Methyl-4-(imidazol-2-ylamino)-2-{2-[3-(pyridin-2-yl)isoxazol-5-yl]pyrrolidin-1-yl}pyrimidine]
- IC50: 0.45 µM

SMILES: Cc1cc(Nc2nccs2)nc(N2CCC[C@H]2c2cc(-c3ccccn3)no2)n1 [Example 1, S-6-Methyl-4-(2-thiazolylamino)-2-{2-[3-(pyrid-2-yl)isoxazol-5-yl]pyrrolidin-1-yl}pyrimidine]
- IC50: 0.17 µM
